Row | Structure (SMILES) | boiling point | melting point | other results
1 | CCCCC(CC)COC(=O)/C=C/C(=O)OCC(CC)CCCC (stereo not given) | 300 °C | -10 °C | 
2 | C=CCC1(CC(=C)Br)C(=O)NC(=O)NC1=O |  | 168 °C | 
3 | CCCCCCCCCCC(=O)O | 280 °C | 28.6 °C | log10 vapour pressure (mmHg): -2.42; ready biodegradability: readily biodegradable
4 | CCn1c(C)nc2ccccc21 | 296 °C | 51 °C | 
5 | CC(=O)Nc1cccc([N+](=O)[O-])c1 |  | 155 °C | log10 Koc (L/kg): 1.94
6 | C1CCC(OC2CCCCC2)CC1 | 242 °C | -36 °C | 
7 | O=S(=O)(O)c1cc(S(=O)(=O)O)c2c(/N=N\c3ccc(S(=O)(=O)O)c4ccccc34)c(O)ccc2c1 |  |  | ready biodegradability: not readily biodegradable
8 | CC[C@H]1OC(=O)[C@H](C)[C@@H](O[C@@H]2O[C@H](C)C[C@H](N(C)C)[C@H]2O)[C@@H](C)C[C@@H](C)C(=O)C=C[C@]1(C)O |  | 196 °C | 
9 | CCOC(=O)C1(S(=O)(=O)c2ccc(C)cc2)CCC1 |  | 53.5 °C | 
10 | Cc1cc(-c2cc(C)c(O)c(C)c2)cc(C)c1O |  | 222 °C | 
11 | CCCCCCCCCCCCCCCCCCCCCC(N)=O |  |  | ready biodegradability: not readily biodegradable
12 | C[Si](C)(C)[Si](C)(C)C | 114 °C | 13.5 °C | 
13 | Oc1ccc(-c2ccc(O)cc2)cc1 |  | 283 °C | ready biodegradability: not readily biodegradable
14 | FCOC(F)(F)C(F)F | 53.6 °C |  | log10 vapour pressure (mmHg): 2.37
15 | CC(C)[C@@H](C)CC[C@@H](C)[C@H]1CC[C@H]2C3=CC[C@H]4C[C@@H](O)CC[C@]4(C)[C@H]3CC[C@]12C |  | 146 °C | 
16 | c1ccc(Cc2cccnc2)cc1 | 287 °C | 34 °C | 
17 | Oc1cc(Cl)cc(Cl)c1Cl |  | 62 °C | log10 Koc (L/kg): 3.61; log10 vapour pressure (mmHg): -1.66
18 | O=c1c(I)cn(CC(O)CO)cc1I (stereo not given) |  | 161 °C | 
19 | S=C1NC(=S)C(c2ccccc2)(c2ccccc2)N1 |  | 263 °C | 
20 | CCOC(=O)C(=O)C(=O)OCC | 210 °C | -30 °C | 
21 | CCCCOC(=O)CC | 147 °C | -89 °C | log10 vapour pressure (mmHg): 0.645
22 | O=C(O)c1cnccn1 |  |  | ready biodegradability: readily biodegradable
23 | CCCCCCCCCCCCCC#N |  | 19 °C | 
24 | CCCCC(C(=O)O)C(=O)N(Nc1ccccc1)c1ccccc1 (stereo not given) |  | 116 °C | 
25 | C[C@H](CCC(=O)O)[C@H]1CC[C@H]2[C@@H]3CC[C@@H]4C[C@H](O)CC[C@]4(C)[C@H]3C[C@H](O)[C@]12C |  | 177 °C | 

Row | Structure (SMILES) | boiling point | melting point | other results
26 | CC(C)OC(C)C | 68.5 °C | -86.8 °C | log10 Henry constant (atm·m³/mol): -2.59; log10 Koa: 2.66; log10 vapour pressure (mmHg): 2.17; ready biodegradability: not readily biodegradable
27 | CCC(CC)COCCC(=O)O | 343 °C | 32.5 °C | 
28 | Cc1c(C)c(Br)c(Br)c(Br)c1Br | 374 °C | 262 °C | 
29 | O=C(CCC(=O)OCc1ccccc1)OCc1ccccc1 |  | 49.5 °C | 
30 | O=C1CN=C(c2ccccc2)c2cc(Cl)ccc2N1CC1CC1 |  | 146 °C | 
31 | FC(F)(F)I | -22.5 °C |  | 
32 | CC1=NN(c2ccc(C)cc2)C(=O)C1 |  | 138 °C | 
33 | c1ccc(CCCc2ccncc2)cc1 | 322 °C |  | 
34 | CCc1ccccc1Nc1ccccc1CC |  | 29 °C | 
35 | OCCN(CCO)c1nc(N2CCCCC2)c2nc(N(CCO)CCO)nc(N3CCCCC3)c2n1 |  | 163 °C | 
36 | BrCCCCCCCCCCCCCCBr |  | 50.4 °C | 
37 | C=CCCC(=C)C | 88.1 °C | -129 °C | 
38 | CCC(C)(C)S | 99.1 °C |  | log10 vapour pressure (mmHg): 1.68
39 | Clc1cc(Cl)cc(Br)c1 | 232 °C | 83 °C | 
40 | O=C1c2ccccc2C(=O)c2c1cccc2[N+](=O)[O-] |  | 232 °C | log10 vapour pressure (mmHg): -8.4
41 | Sc1ncc[nH]1 |  | 230 °C | 
42 | O=C(O)CCCCCCCCCCO |  | 65.5 °C | 
43 | CC1(C)C(=O)NC(=O)N1CO |  | 100 °C | 
44 | Nc1ncnc2c1ncn2[C@H]1CC[C@@H](CO)O1 |  | 185 °C | 
45 | Cc1ccccc1B(O)O |  | 166 °C | 
46 | CC(C)(Br)C(=O)Br | 163 °C |  | 
47 | Cc1cc2nc3c(=O)[nH]c(=O)nc-3n(C)c2cc1C |  | 320 °C | 
48 | N#Cc1cc(I)c(O)c([N+](=O)[O-])c1 |  | 138 °C | 
49 | CCCCOCC(C)O (stereo not given) | 172 °C |  | ready biodegradability: readily biodegradable
50 | OCCOc1ccc2ccccc2c1 |  | 76.7 °C | 

Row | Structure (SMILES) | boiling point | melting point | other results
51 | CCCCBr | 101 °C | -112 °C | log10 vapour pressure (mmHg): 1.62
52 | O=C(O)c1ccc([N+](=O)[O-])cc1Cl |  | 140 °C | 
53 | CCC(C)(C)C(C)C | 115 °C | -101 °C | log10 biodegradation half-life (days): 1.72; log10 vapour pressure (mmHg): 1.43
54 | COC(=O)[C@]1(C)CCC[C@@]2(C)[C@H]1CC=C1C=C(C(C)C)CC[C@@H]12 | 362 °C |  | 
55 | C[C@H]1C[C@@H]2[C@H]([C@@H](O)C[C@@]3(C)[C@H]2CC[C@]3(O)C(=O)CO)[C@@]2(C)C=CC(=O)C=C12 |  | 232 °C | 
56 | CCCC(O)CC(C)C (stereo not given) | 164 °C | -81 °C | 
57 | CCCC(=O)c1ccccc1 | 228 °C | 12 °C | 
58 | C=CC[C@]1(O)CC[C@H]2[C@@H]3CCC4=CC(=O)CCC4=C3C=C[C@@]21C |  | 120 °C | 
59 | CC1CCC2C(=O)OC(=O)C2C1 (stereo not given) |  |  | ready biodegradability: not readily biodegradable
60 | COC=Cc1ccccc1 | 212 °C |  | 
61 | CCN(CC)CCSC(=O)N(c1ccccc1)c1ccccc1 |  | 48.5 °C | 
62 | O=C(O)c1cccc(Cl)c1 |  | 158 °C | ready biodegradability: readily biodegradable
63 | CB(C)Cl | 4.9 °C |  | 
64 | COC(=O)CC(O)(CC(=O)OC)C(=O)OC | 285 °C | 79.3 °C | 
65 | CNC(=O)Oc1c(C(C)(C)C)cc(C)cc1C(C)(C)C |  |  | ready biodegradability: not readily biodegradable
66 | CC(C(=O)[O-])c1ccccc1 (stereo not given) | 261 °C |  | 
67 | N#CCCCCl | 192 °C |  | 
68 | CCC(=O)F | 44 °C |  | 
69 | OC(CCN1CCCCC1)(c1ccccc1)c1ccccc1 |  | 120 °C | 
70 | C1CCCCCCCCC1 | 202 °C | 10 °C | log10 vapour pressure (mmHg): -0.252
71 | CCCc1ccc(N)cc1 | 225 °C |  | 
72 | Oc1cc(Cl)c(Cl)c(Cl)c1Cl |  | 116 °C | log10 Koc (L/kg): 4.12
73 | NC(Cc1cc(Br)c(O)c(Br)c1)C(=O)O (stereo in doubt) |  | 245 °C | 
74 | CN(C)CCCCCCN(C)C | 210 °C |  | ready biodegradability: not readily biodegradable
75 | O=C1CCCCCC1 | 178 °C |  | log10 vapour pressure (mmHg): 0.0969

Row | Structure (SMILES) | boiling point | melting point | other results
76 | CN1CCN(C(=O)CC(c2ccc(Cl)cc2)(c2ccc(Cl)cc2)c2ccc(Cl)cc2)CC1 |  | 214 °C | 
77 | C=CC(O)CO (stereo not given) | 196 °C |  | 
78 | C=C1CCCCC1 | 102 °C | -107 °C | log10 vapour pressure (mmHg): 1.6
79 | CC1(C)CC(O)CC(C)(C)N1 |  |  | ready biodegradability: not readily biodegradable
80 | COC(=O)CCO | 179 °C |  | 
81 | O=C1OC(c2cc(Br)c(O)c(Br)c2)(c2cc(Br)c(O)c(Br)c2)c2ccccc21 |  | 296 °C | 
82 | COC(=O)CCC#N | 211 °C |  | 
83 | O=c1[nH]c2c(c(=O)n1C1CCCCC1)CCC2 |  | 316 °C | log10 Koc (L/kg): 2.14; log10 vapour pressure (mmHg): -8.82
84 | CCc1ccc2cc(O)c(O)cc2c1 |  | 149 °C | 
85 | CCN(CC)C(=O)c1ccccc1C(=O)N(CC)CC |  | 36 °C | 
86 | O=C(O)c1cc(I)c(I)c(I)c1 |  | 292 °C | 
87 | CCCOC(=O)C1CCCCC1 | 216 °C |  | 
88 | CC(C)=CCC[C@@H](C)[C@H]1CC[C@@]2(C)C3=C(CC[C@]12C)[C@@]1(C)CC[C@H](O)C(C)(C)[C@@H]1CC3 |  | 140 °C | 
89 | Nc1ccc(C(=O)O)c(N)c1 |  | 140 °C | 
90 | NCCNCCNCCNCCN | 342 °C | -30 °C | 
91 | O=C(CO)[C@@H](O[C@H]1O[C@H](CO)[C@@H](O)[C@H](O)[C@H]1O)[C@H](O)[C@H](O)CO |  | 168 °C | 
92 | O=C1OC(=O)C2C1C1(Cl)C(Cl)=C(Cl)C2(Cl)C1(Cl)Cl (stereo not given) |  | 233 °C | 
93 | O=C(Cl)c1ccc(Cl)cc1Cl |  | 16.5 °C | 
94 | CON(C)C(=O)Nc1ccc(Br)cc1 |  | 95 °C | log10 Koc (L/kg): 2.1; log10 vapour pressure (mmHg): -5.52
95 | Cc1nc2ccccc2o1 | 200 °C | 9.5 °C | 
96 | CC(CCC(=O)O)n1nnc2ccccc21 (stereo not given) |  | 86 °C | 
97 | N#CCON=C(C#N)c1ccccc1 |  | 55 °C | log10 vapour pressure (mmHg): -0.457
98 | CCOC(=O)c1cccc(C(=O)OCC)c1 | 302 °C | 11.5 °C | 
99 | CCCC=O |  | -99 °C | log10 Henry constant (atm·m³/mol): -3.94; log10 Koa: 3.39; log10 vapour pressure (mmHg): 2.05; ready biodegradability: readily biodegradable
100 | CCOC(=O)C(C)(C)C(=O)OCC | 197 °C | -30.4 °C | 

Row | Structure (SMILES) | boiling point | melting point | other results
101 | CCOC(C)Cl (stereo not given) | 93.5 °C |  | 
102 | COc1cc(C(=O)O)cc(OC)c1O |  | 208 °C | ready biodegradability: readily biodegradable
103 | CC(Cl)(Cl)C(=O)O | 188 °C | -5 °C | log10 Koc (L/kg): 0.4; log10 vapour pressure (mmHg): -0.821
104 | CC(C)C(=O)OC1CCCCC1 | 204 °C |  | 
105 | CN(C)c1ccccc1C(=O)O |  | 72 °C | 
106 | COc1ccc2c3c1O[C@H]1C(=O)CC[C@@]4(O)[C@@H](C2)N(C)CC[C@]314 |  | 219 °C | 
107 | Cc1cccc(C)c1[N+](=O)[O-] | 226 °C | 15 °C | 
108 | c1ccc2cc3c4ccccc4c4ccccc4c3cc2c1 | 524 °C | 206 °C | log10 vapour pressure (mmHg): -10
109 | O=[N+]([O-])c1ccc(C=NO)o1 |  | 163 °C | 
110 | CCC(CC)(CO)CO | 240 °C | 61.5 °C | 
111 | O=C1NCCN1 |  | 131 °C | 
112 | CC(CCC(=O)O)c1ccccc1 (stereo not given) |  | 13 °C | 
113 | CC(=O)OC(c1ccccc1)C(Cl)(Cl)Cl (stereo not given) |  | 87.5 °C | 
114 | COc1cccc(Cl)c1Cl |  | 32 °C | 
115 | CCOC(=O)Nc1ccc2c(c1)N(C(=O)CCN1CCOCC1)c1ccccc1S2 |  | 156 °C | 
116 | O=C(O)C1=CCCCC1 | 241 °C | 38 °C | 
117 | CCOC(=O)CSc1nc(C(C)(C)C)nn1C(=O)N(C)C |  | 53 °C | log10 vapour pressure (mmHg): -6.92
118 | Cn1c(=O)c2c(ncn2C)n(C)c1=O |  | 238 °C | 
119 | O=C(O)c1cccc2cccnc12 |  | 187 °C | 
120 | NC(=O)Nc1cccc(C(F)(F)F)c1 |  |  | log10 Koc (L/kg): 1.98
121 | CCOC(=O)C(C)(C)C(C)=O | 182 °C |  | 
122 | COP(=S)(OC)SCC(=O)N(c1ccc(Cl)cc1)C(C)C |  | 51 °C | 
123 | CC(Cl)C(Cl)(Cl)C=O (stereo not given) | 164 °C |  | 

Source: the OPERA property sets (Mansouri et al. 2018)
